Patent US11192921B2 (priority 2017, dated 2021)
“And” between values parts separate entries of the source, which are not always exact repeats. Equal values may be shown once. Read-outs that look alike come from different tables or passages of the source. Marks after values point to notes of the source that are not given here.

Experiments:
[1] = test system: male BALB/c mice; assay: cancer-induced pain (CIP) model, thermosensitive test; assay type: in vivo
Description: Influence of Analgesic Polypeptides on Neuralgia in a Cancer-Induced Pain (CIP) Model
A number of male BALB/c mice each weighing 25-30 g were used.
Von Fery monofilament; a microsyringe, 5 mg/mL solutions of polypeptides I, II and II I; normal saline.
(§1) BALB/c mice were taken, and the right sciatic nerve was exposed; ascites containing 5×10^4 Meth A sarcoma cells were injected into the proximal nerve near the sciatic nerve trochanter far from the tendon branch of the posterior biceps, the wound was closed, and the same volume of normal saline was injected into the left side by performing a sham operation.
1.3.1 Thermosensitive Test
On the 4th, 7th, 10th and 14th days after inoculation, the latency of foot lifting caused by heat radiation stimulation to animals was observed, and the heat radiation intensity was adjusted to cause the latency of foot lifting of normal mice to be (10±2) s.
All data was expressed as M±SD and subjected to one-way ANOVA.

[2] = test system: male BALB/c mice; assay: cancer-induced pain (CIP) model, gross behavior; assay type: in vivo; settings: 14th day after inoculation
Description: as §1
On the 4th, 7th, 10th and 14th days after inoculation, spontaneous pain and foot drop and the like occurred before the occurrence of thermal sensitivity and mechanical pain sensitivity behaviors, […]

[3] = test system: SD rats; assay: pain threshold of trigeminal nerve (trigeminal neuralgia model); assay type: in vivo; settings: for highest pain threshold on the operative side / pain threshold on the opposite side: 3 h after injection; for Pain threshold: intraperitoneal
[4] = test system: Kunming mice; settings: mouse, in vivo
[5] = test system: Female Kunming mice
[6] = test system: Female Kunming mice; remark: listed apart in the source
[7] = test system: Kunming mice; assay type: in vivo
[8] = test system: Female Kunming mice; assay type: in vivo
[9] = test system: Female Kunming mice; remark: listed apart in the source
[10] = 50 μg/kg, injected subcutaneously
[11] = 100 μg/kg, injected subcutaneously

## Gly-Ser-Cys-Ser-Thr-Pro-Pro-d{Cys}-Val-Leu-Tyr-Ser [Polypeptide I]
[1]; 14th day after inoculation
  increase of the latency of foot lifting: particularly significant
[1]; heat radiation stimulation, before administration
  Latency of foot lifting before administration: 10.56 ± 0.89
[1]; heat radiation stimulation, day 4
  Latency (D) of foot lifting after administration: 10.01 ± 0.23
[1]; heat radiation stimulation, day 7
  Latency (D) of foot lifting after administration: 9.26 ± 0.99
[1]; heat radiation stimulation, day 10
  Latency (D) of foot lifting after administration: 8.56 ± 0.23
[1]; heat radiation stimulation, day 14
  Latency (D) of foot lifting after administration: 7.44 ± 0.85
[2]
  left foot lifting behavior: obviously observed
[3]; 50 μg/kg and 100 μg/kg, injected subcutaneously
  animal reaction thresholds: significantly increased
[3]; [10]
  time the pain thresholds lasted: 1 h
  highest pain threshold on the operative side: 2.3 ± 0.5 g
  pain threshold on the opposite side: 1.2 ± 0.2 g
[3]; [11]
  time the effect on the operative side lasted: about 8 h
  highest pain threshold on the operative side: 7.4 ± 0.9 g
  pain threshold on the opposite side: 3.2 ± 1.3 g
[3]; 300 μg/kg, subcutaneously
  pain threshold change: not significantly increased
[3]; Dose 50 (μg/kg), 0 h
  Pain threshold: 25.44 ± 0.23 s
[3]; Dose 50 (μg/kg), 1 h
  Pain threshold: 26.35 ± 0.65 s
[3]; Dose 50 (μg/kg), 2 h
  Pain threshold: 26.89 ± 0.23 s
[3]; Dose 50 (μg/kg), 3 h
  Pain threshold: 27.56 ± 0.56 s
[3]; Dose 50 (μg/kg), 4 h
  Pain threshold: 26.45 ± 0.78 s
[3]; Dose 50 (μg/kg), 5 h
  Pain threshold: 25.89 ± 0.12 s
[3]; Dose 100 (μg/kg), 0 h
  Pain threshold: 25.11 ± 0.56 s
[3]; Dose 100 (μg/kg), 1 h
  Pain threshold: 27.86 ± 0.95 s
[3]; Dose 100 (μg/kg), 2 h
  Pain threshold: 28.12 ± 0.65 s
[3]; Dose 100 (μg/kg), 3 h
  Pain threshold: 29.46 ± 0.61 s
[3]; Dose 100 (μg/kg), 4 h
  Pain threshold: 26.43 ± 0.62 s
[3]; Dose 100 (μg/kg), 5 h
  Pain threshold: 25.68 ± 0.33 s
[3]; Dose 300 (μg/kg), 0 h
  Pain threshold: 26.65 ± 0.41 s
[3]; Dose 300 (μg/kg), 1 h
  Pain threshold: 30.56 ± 0.11 s
[3]; Dose 300 (μg/kg), 2 h
  Pain threshold: 30.53 ± 0.62 s
[3]; Dose 300 (μg/kg), 3 h
  Pain threshold: 29.56 ± 0.12 s
[3]; Dose 300 (μg/kg), 4 h
  Pain threshold: 28.15 ± 0.32 s
[3]; Dose 300 (μg/kg), 5 h
  Pain threshold: 27.15 ± 0.65 s
[4]
  analgesic effects in formalin-induced pain experiments: good analgesic effects
  cumulative foot licking time, Phase I: 46.44 ± 10.28*^
  cumulative foot licking time, Phase II: 42.10 ± 14.32*^
[5]; 1 h
  Duration of the immobility of mice in tail suspension tests: 20.39 ± 1.21^ s
[5]; 24 h
  Duration of the immobility of mice in tail suspension tests: 18.99 ± 1.48 s
[5]; Time 0
  Duration of the immobility of mice in tail suspension tests: 20.57 ± 1.65 s
[5]; mouse, in vivo, ip
  data of tail suspension test compared with the normal saline group: no significant difference
  toxic side effects compared with the conotoxin (tail suspension): lower toxic side effects
[6]; 1 h
  Movement duration of mice in forced swimming tests: 20.39 ± 1.21^ s
[6]; 24 h
  Movement duration of mice in forced swimming tests: 18.99 ± 1.48 s
[6]; Time 0
  Movement duration of mice in forced swimming tests: 20.57 ± 1.65 s
[6]; mouse, in vivo, ip
  toxic side effects compared with the conotoxin (forced swimming): lower toxic side effects
[7]; 0 min
  Pain threshold (tail flick): 2.31 ± 0.12 s
[7]; 15 min
  Pain threshold (tail flick): 2.12 ± 0.21^∧∧ s
[7]; 30 min
  Pain threshold (tail flick): 2.12 ± 0.12 s
[7]; 45 min
  Pain threshold (tail flick): 3.22 ± 0.12^∧ s
[7]; 60 min
  Pain threshold (tail flick): 2.12 ± 0.21*^∧ s
[7]; 75 min
  Pain threshold (tail flick): 2.12 ± 0.12 s
[7]; 90 min
  Pain threshold (tail flick): 2.32 ± 0.14 s
[7]; mouse, in vivo
  difference from the conotoxin group during a time period (^^P<0.01): significantly different from the conotoxin group
[8]; 0 min
  Pain threshold: 28.32 ± 0.21 s
[8]; mouse, in vivo, ip
  Pain threshold: 25.21 ± 0.42^∧∧ s and 31.32 ± 0.32*^∧ s and 24.23 ± 0.42^∧ s and 21.39 ± 0.45^∧ s and 29.23 ± 0.42 s and 23.44 ± 0.24 s
  heat thresholds of mice compared with the normal saline negative control group: effectively increase the heat thresholds of mice
[9]; 1 h
  Movement distances of mice in open field tests: 20.39 ± 1.21^
  Movement distances of mice in the center area in open field tests: 20.39 ± 1.21^
  Movement distances of mice in the peripheral area in open field tests: 20.39 ± 1.21^
  Number of entrances to the center area in open field tests: 20.39 ± 1.21^
  Number of entrances to the peripheral area in open field tests: 20.39 ± 1.21^
  Residence time in the center area in open field tests: 20.39 ± 1.21^ s
  Residence time in the peripheral area in open field tests: 20.39 ± 1.21^ s
[9]; 24 h
  Movement distances of mice in open field tests: 18.99 ± 1.48 m
  Movement distances of mice in the center area in open field tests: 18.99 ±1.48 m
  Movement distances of mice in the peripheral area in open field tests: 18.99 ± 1.48 m
  Number of entrances to the center area in open field tests: 18.99 ± 1.48
  Number of entrances to the peripheral area in open field tests: 18.99 ± 1.48
  Residence time in the center area in open field tests: 18.99 ± 1.48 s
  Residence time in the peripheral area in open field tests: 18.99 ± 1.48 s
[9]; Time 0
  Movement distances of mice in open field tests: 20.57 ± 1.65 m
  Movement distances of mice in the center area in open field tests: 20.57 ±1.65 m
  Movement distances of mice in the peripheral area in open field tests: 20.57 ± 1.65 m
  Number of entrances to the center area in open field tests: 20.57 ± 1.65
  Number of entrances to the peripheral area in open field tests: 20.57 ± 1.65
  Residence time in the center area in open field tests: 20.57 ± 1.65 s
  Residence time in the peripheral area in open field tests: 20.57 ± 1.65 s
[9]; mouse, in vivo, ip
  side effects compared with conotoxin (open field): lower side effects
  various indexes in open field experiments compared with the normal saline group: no significant difference
